Earlier results, collected in patent US20160166510A1, “STABILIZED PROLONGED RELEASE PHARMACEUTICAL COMPOSITION COMPRISING ATYPICAL ANTIPSYCHOTIC” (INVENTIA HEALTHCARE PRIVATE LIMITED, priority 2010, published 2016).
Read-outs that look alike come from different tables or passages of the source.

- Solubility (in 0.1 N HCl): sparingly soluble
- Solubility (in methylene chloride): sparingly soluble
- Solubility (in water): practically insoluble
Compound: Cc1nc2n(c(=O)c1CCN1CCC(c3noc4cc(F)ccc34)CC1)CCCC2O (stereo not drawn) [Paliperidone]
